Tests used:
[1] = system: AII-induced contractions of isolated rabbit aorta; experiment: Test B: antagonism of AII-induced contractions of isolated aorta; assay type: cell-based; conditions: Oryctolagus cuniculus, 37°C, average, read-out: average pA₂ (converted)
Experimental: In general, compounds of formula VI as defined above show significant inhibition in Test A at a concentration of 50 micromolar or much less. Test B: This in vitro test involves the measurement of the antagonistic effects of the test compound against AII-induced contractions of isolated rabbit aorta, maintained in a physiological salt solution at 37°C. In order to ensure that the effect of the compound is specific to antagonism of AII, the effect of the test compound on noradrenaline-induced contractions may also be determined in the same preparation.

[2] = system: angiotensin II-induced pressor responses; experiment: Test C: antagonism of angiotensin II-induced pressor responses in vivo; conditions: Rattus norvegicus, iv; i.v. administration; rats; read-out: ED₅₀
Experimental: In general, compounds of formula VI as defined above show significant inhibition in Test B at a final concentration of 50 micromolar or much less. Test C: This in vivo test involves using terminally-anaesthetised or conscious rats in which an arterial catheter has been implanted under anaesthesia for the measurement of changes in blood pressure. The AII antagonistic effects of the test compound following oral or parenteral administration, are assessed against angiotensin II-induced pressor responses. To ensure that the effect is specific, the effect of the test compound on vasopressin-induced pressor responses may also be determined in the same preparation.

Cc1cc(OCc2ccc(-c3ccccc3-c3nnn[nH]3)cc2)c2ccccc2n1.Cl [2-methyl-4-[(2′-(1H-tetrazol-5-yl)biphenyl-4-yl)methoxy]quinoline hydrochloride]
Kb [1]: 1.12 nM
ED50 [2]: 0.5 mg/kg

Reference: patent EP0470794A1, “Process for the preparation of nitriles” (ZENECA LIMITED, priority 1990, dated 1992)
